We go through 46 molecules from BindingDB's records for patent US20250313563 (The Broad Institute, 2025).

What is called IC50 is the midpoint of a concentration-inhibition curve. A high value points to a need for much substance.

Test [1] deals with Glycogen synthase kinase-3 alpha (Homo sapiens, UniProt P49840). Description: TR-FRET Assay. In a few lines: (§1)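 Enzyme and test compound were first incubated together for 30 minutes in assay buffer. The kinase reaction followed and was stopped with EDTA. The pSer641 signal was read by time-resolved FRET.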
Chain of Glycogen synthase kinase-3 alpha (P49840 whole entry): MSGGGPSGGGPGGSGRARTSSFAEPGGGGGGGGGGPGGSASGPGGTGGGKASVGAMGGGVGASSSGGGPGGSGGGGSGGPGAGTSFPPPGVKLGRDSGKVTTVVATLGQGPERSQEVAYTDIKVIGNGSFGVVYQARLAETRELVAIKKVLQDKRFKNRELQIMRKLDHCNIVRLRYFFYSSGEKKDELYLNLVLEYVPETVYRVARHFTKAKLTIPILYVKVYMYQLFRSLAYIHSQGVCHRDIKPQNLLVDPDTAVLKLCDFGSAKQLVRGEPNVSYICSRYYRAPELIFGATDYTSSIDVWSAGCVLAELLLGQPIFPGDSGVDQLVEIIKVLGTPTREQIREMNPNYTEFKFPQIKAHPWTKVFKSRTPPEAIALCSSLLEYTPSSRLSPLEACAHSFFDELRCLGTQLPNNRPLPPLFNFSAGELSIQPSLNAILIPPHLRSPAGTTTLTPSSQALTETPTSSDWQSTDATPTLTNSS
(In general: TR-FRET usually uses a lanthanide donor and a delayed reading to cut background.)

Test [2] addresses Glycogen synthase kinase-3 beta (Homo sapiens, UniProt P49841). The experiment in a line: TR-FRET Assay. In a few lines: as §1

Several values for one entry are separate records, joined by “and”; a condition that tells them apart may be missing. Identical values can stand only once.

Chain of Glycogen synthase kinase-3 beta (P49841 whole entry): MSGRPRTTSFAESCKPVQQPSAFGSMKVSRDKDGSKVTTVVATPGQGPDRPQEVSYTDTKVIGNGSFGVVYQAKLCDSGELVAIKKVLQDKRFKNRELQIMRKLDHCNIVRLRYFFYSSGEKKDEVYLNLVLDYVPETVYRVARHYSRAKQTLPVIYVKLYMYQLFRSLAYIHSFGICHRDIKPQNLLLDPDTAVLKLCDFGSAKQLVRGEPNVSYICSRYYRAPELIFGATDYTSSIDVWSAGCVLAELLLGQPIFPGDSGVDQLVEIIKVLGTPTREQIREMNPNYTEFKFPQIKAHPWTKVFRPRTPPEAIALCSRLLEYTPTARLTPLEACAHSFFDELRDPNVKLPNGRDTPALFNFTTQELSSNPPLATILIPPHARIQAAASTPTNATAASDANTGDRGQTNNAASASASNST

With `CC1(C)CC(=O)C2=C(C1)NC1=C(CN=N1)[C@]21C[C@@H](n2cccn2)C1` [US20250313563, Compound 884004], the IC50 in test [1] and in test [2] was under 0.1 µM throughout.

`Cc1cnc2c(S(=O)(=O)N3CCC4(CC3)C3=C(N=NC3)NC3=C4C(=O)CC(C)(C)C3)cccc2c1` [US20250313563, Compound 947614]: the IC50 in test [1] and in test [2] was under 0.1 µM each time.

Take `CC1(C)CC(=O)C2=C(C1)NC1=C(CN=N1)C21COC2(CN(C(=O)C3CCCCC3)C2)C1` (configuration not stated) [US20250313563, Compound 947291]: the IC50 was under 0.1 µM in test [1] and 0.1 to 1 µM in test [2].

`CC1(c2ccccc2)C2=C(N=NC2)NC2=C1C(=O)CC1(CCCC1)C2` (configuration not stated) [US20250313563, Compound 789460]: the IC50 in test [1] and in test [2] was 0.1 to 1 µM throughout.

Consider `CC1(C)CC(=O)C2=C(C1)NC1=C(CN=N1)[C@]21C[C@@]2(CCN(CC(F)F)C2)C1` [US20250313563, Compound 913139], for which the concentration for half-maximal inhibition (IC50) in test [1] and in test [2] was 0.1 to 1 µM in each case.

`CCC1(c2cccc(-c3ccnc(C)c3)c2)C2=C(CC(C)(C)NC2=O)NC2N=NC(F)=C21` (configuration not stated) [US20250313563, Compound 948299]: the IC50 was under 0.1 µM in test [1] and 1 to 5 µM in test [2].

As for `CCC1(c2cccc(C(F)(F)F)c2)C2=CN=NC2NC2=C1C(=O)N(c1cccs1)CC2` (configuration not stated) [US20250313563, Compound 950614], the IC50 is under 0.1 µM in test [1] and 0.1 to 1 µM in test [2].

Regarding `CCC1(c2cccc(-c3cc(C)ncn3)c2)C2=CN=NC2NC2=C1C(=O)CC(C)(C)C2` (configuration not stated) [US20250313563, Compound 948089], the IC50 in test [1] was under 0.1 µM; in test [2], 0.1 to 1 µM.

With `CC[C@@]1(c2cccc(Cl)c2)C2=C(CC(C)(C)CC2=O)NC2N=NC(Br)=C21` (some centres not stated) [US20250313563, Compound 801315], the IC50 in test [1] and in test [2] was 0.1 to 1 µM throughout.

Regarding `CC[C@]1(c2cccc(-c3cnn(CCOC)c3)c2)C2=C(CC(C)(C)CC2=O)NC2N=NC(C)=C21` (some centres not stated) [US20250313563, Compound 913042], the IC50 in test [1] and in test [2] was over 5 µM each time.

As for `CC[C@]1(c2cccc(C(F)(F)F)c2)C2=C(N=NC2)NC2=C1C(=O)NC2` [US20250313563, Compound 917157], the IC50 in test [1] and in test [2] was over 5 µM in each case.

Regarding `CCC1(c2cccc(-c3ccnc(C)c3)c2)C2=CN=NC2NC2=C1C(=O)NC(C)(C)C2` (configuration not stated) [US20250313563, Compound 914930], the IC50 in test [1] is under 0.1 µM; in test [2], 1 to 5 µM.

Take `CCC1(c2cccc(-c3ccncc3S(C)(=O)=O)c2)C2=CN=NC2NC2=C1C(=O)CC(C)(C)C2` (configuration not stated) [US20250313563, Compound 947569]: the IC50 in test [1] and in test [2] was under 0.1 µM in each case.

Regarding `CC[C@@]1(c2cccc(-c3c(C)cncc3C)c2)C2=CN=NC2NC2=C1C(=O)NC(C)(C)C2` (some centres not stated) [US20250313563, Compound 948812], the IC50 in test [1] is < 0.1 µM and 0.1 to 1 µM; in test [2], < 0.1 µM and 1 to 5 µM.

Turning to `CC[C@@]1(c2cccc(C(C)C)c2)C2=CN=NC2NC2=C1C(=O)NC(C)(C)C2` (some centres not stated) [US20250313563, Compound 949752], the IC50 in test [1] and in test [2] was over 5 µM throughout.

For the molecule `CC[C@@]1(c2cccc(-c3cn(C)nc3C)c2)C2=C(CC(C)(C)NC2=O)NC2N=NC(F)=C21` (some centres not stated) [US20250313563, Compound 949185], the IC50 is under 0.1 µM in test [1]; < 0.1 µM and 1 to 5 µM in test [2].

Regarding `CC1(C)CC(=O)C2=C(C1)NC1N=NC=C1[C@@]21CO[C@@H](c2ccccc2)C1` (some centres not stated) [US20250313563, Compound 946073], the IC50 was under 0.1 µM in test [1] and 0.1 to 1 µM in test [2].

As for `CC1(C)CC(=O)C2=C(C1)NC1=C(CN=N1)C21CN(S(=O)(=O)c2ccccc2F)C1` [US20250313563, Compound 913263], the IC50 in test [1] and in test [2] was 0.1 to 1 µM in each case.

For `CCC1(c2cccc(N(C)C(=O)CN3CCCC3)c2)C2=CN=NC2NC2=C1C(=O)CC(C)(C)C2` (configuration not stated) [US20250313563, Compound 909202], the values for the IC50 in test [1] and in test [2] were 0.1 to 1 µM and 1 to 5 µM, respectively.

As for `CC1(C)CC(=O)C2=C(C1)NC1=C(CN=N1)C21COC2(CN(C(=O)c3cccc(F)c3)C2)C1` (configuration not stated) [US20250313563, Compound 947283], the IC50 in test [1] and in test [2] was under 0.1 µM each time.

With `CC[C@]1(c2cccc(N3CCCC[C@H]3C)c2)C2=CN=NC2NC2=C1C(=O)CC(C)(C)C2` (some centres not stated) [US20250313563, Compound 917209], the IC50 in test [1] was under 0.1 µM; in test [2], 0.1 to 1 µM.

As for `CCC1(c2cccc(C(C)C)c2)C2=C(N=NC2)NC2=C1C(=O)NC(C)(C)C2` (configuration not stated) [US20250313563, Compound 949326], the IC50 in test [1] was under 0.1 µM; in test [2], 0.1 to 1 µM.

Turning to `Cc1nccc([C@H]2CC[C@@]3(CC2)C2=C(N=NC2)NC2=C3C(=O)CC(C)(C)C2)c1C` [US20250313563, Compound 950477], the IC50 in test [1] and in test [2] was 0.1 to 1 µM each time.

For the molecule `CC[C@@]1(c2cccc(C(F)(F)F)c2)C2=CN=NC2NC2=C1C(=O)N(c1ccn(C)n1)CC2` (some centres not stated) [US20250313563, Compound 949836], the IC50 in test [1] was 1 to 5 µM; in test [2], over 5 µM.

As for `CC1(C)CC(=O)C2=C(C1)NC1=C(CN=N1)[C@]21COC2(CCC2)C1` [US20250313563, Compound 917128], the IC50 in test [1] and in test [2] was 0.1 to 1 µM throughout.

On to `CCN(C(C)=O)c1cccc([C@@]2(CC)C3=CN=NC3NC3=C2C(=O)CC(C)(C)C3)c1` (some centres not stated) [US20250313563, Compound 909214], for which the IC50 in test [1] and in test [2] was under 0.1 µM throughout.

For the molecule `CC[C@]1(c2cccc(-c3cnn(Cc4ccc(C(F)(F)F)cc4)c3)c2)C2=CN=NC2NC2=C1C(=O)NC(C)(C)C2` (some centres not stated) [US20250313563, Compound 949511], the IC50 in test [1] and in test [2] was over 5 µM in each case.

Consider `Cc1cccc2c1CC[C@@]21C2=C(N=NC2)NC2=C1C(=O)CC(C)(C)C2` [US20250313563, Compound 913136], for which the IC50 was under 0.1 µM in test [1] and 0.1 to 1 µM in test [2].

`O=C1C2=C(NC3N=NC=C3C23CCOCC3)[C@H]2CC[C@@H]1C2` (some centres not stated) [US20250313563, Compound 912080]: the IC50 in test [1] and in test [2] was 0.1 to 1 µM in each case.

For `CC[C@]1(c2cccc(-c3cnn(C(C)C)c3F)c2)C2=CN=NC2NC2=C1C(=O)NC(C)(C)C2` (some centres not stated) [US20250313563, Compound 949267], the IC50 was in the range of 0.1 to 1 µM in test [1] and 1 to 5 µM in test [2].

As for `CC[C@]1(c2cccc([C@H]3CCOC3)c2)C2=CN=NC2NC2=C1C(=O)CC(C)(C)C2` (some centres not stated) [US20250313563, Compound 889556], the IC50 in test [1] and in test [2] was under 0.1 µM in each case.

As to `CCC1(c2cccc(-c3ccnc(CO)c3)c2)C2=CN=NC2NC2=C1C(=O)CC(C)(C)C2` (configuration not stated) [US20250313563, Compound 943540], the IC50 was under 0.1 µM in test [1] and 0.1 to 1 µM in test [2].

Regarding `CC[C@]1(c2cccc(C3=CN(C)NC3C)c2)C2=C(N=NC2)NC2=C1C(=O)C(C)(C)C2` (some centres not stated) [US20250313563, Compound 951710], the IC50 in test [1] and in test [2] was over 5 µM in each case.

Take `CCC1(c2cccc(CN3CCCCC3)c2)C2=CN=NC2NC2=C1C(=O)CC(C)(C)C2` (configuration not stated) [US20250313563, Compound 819560]: the IC50 in test [1] is 1 to 5 µM; in test [2], over 5 µM.

As for `CCc1cc(-c2cccc(C3(CC)C4=CN=NC4NC4=C3C(=O)CC(C)(C)C4)c2)cc(CC)n1` (configuration not stated) [US20250313563, Compound 929445], the values for the IC50 in test [1] and in test [2] were 1 to 5 µM and over 5 µM, respectively.

`Cc1ccc(C(=O)N2CC3(C2)C[C@@]2(CO3)C3=C(N=NC3)NC3=C2C(=O)CC(C)(C)C3)cc1C` [US20250313563, Compound 948039]: the IC50 in test [1] is 0.1 to 1 µM; in test [2], 1 to 5 µM.

For the molecule `CC[C@]1(c2cccc(C(F)(F)F)c2)C2=C(N=NC2)NC2=C1C(=O)N(c1ccccc1)C2` [US20250313563, Compound 945376], the IC50 in test [1] and in test [2] was over 5 µM throughout.

For the molecule `CC1(C)CC(=O)C2=C(C1)NC1=C(CN=N1)[C@]21C[C@H](OCc2ccccc2)C1` [US20250313563, Compound 909210], the IC50 in test [1] and in test [2] was 0.1 to 1 µM throughout.

Turning to `CC[C@@]1(c2cccc(S(=O)(=O)C3CCCCC3)c2)C2=CN=NC2NC2=C1C(=O)CC(C)(C)C2` (some centres not stated) [US20250313563, Compound 943541], the results for the IC50 in test [1] and in test [2] were 0.1 to 1 µM and 1 to 5 µM, respectively.

With `CC1(C)CC(=O)C2=C(C1)NC1N=NC(C(F)(F)F)=C1[C@]21CCc2c(F)cccc21` (some centres not stated) [US20250313563, Compound 806569], the IC50 in test [1] and in test [2] was under 0.1 µM each time.

Take `CCC1(c2cccc(C(F)(F)F)c2)C2=CN=NC2NC2=C1C(=O)N(c1ccsc1)CC2` (configuration not stated) [US20250313563, Compound 950776]: the IC50 was under 0.1 µM in test [1] and 0.1 to 1 µM in test [2].

`CC[C@]1(c2cccc(-c3cncn3C)c2)C2=CN=NC2NC2=C1C(=O)CC(C)(C)C2` (some centres not stated) [US20250313563, Compound 945620]: the IC50 lay in the range of 0.1 to 1 µM in test [1] and 1 to 5 µM in test [2].

As for `CCC1(c2cccc(N(C)C(=O)COC)c2)C2=CN=NC2NC2=C1C(=O)CC(C)(C)C2` (configuration not stated) [US20250313563, Compound 889580], the IC50 in test [1] was under 0.1 µM; in test [2], 0.1 to 1 µM.

`CC[C@@]1(c2ccc(C)cc2)C2=CN=NC2NC2=C1C(=O)CC(C)(C)C2` (some centres not stated) [US20250313563, Compound 789458]: the IC50 in test [1] and in test [2] was over 5 µM throughout.

Turning to `CC1(C)CC(=O)C2=C(C1)NC1=C(CN=N1)C2(C)CCc1ccccc1` (configuration not stated) [US20250313563, Compound 819562], the half-maximal inhibitory concentration (IC50) is 1 to 5 µM in test [1] and over 5 µM in test [2].

In the case of `CC1(C)CC(=O)C2=C(C1)NC1=C(CN=N1)C21CCN(S(=O)(=O)c2ccc(OC(F)F)cc2)CC1` [US20250313563, Compound 947246], the IC50 in test [1] was under 0.1 µM; in test [2] it was < 0.1 µM and 0.1 to 1 µM.
